{
  "source": "patent US20150126368A1",
  "about": "“METHOD OF PROVIDING PLANT WITH STRESS RESISTANCE” (Nippon Soda Co., Ltd., priority 2012, published 2015)",
  "format_in_all_cases": "in vivo",
  "key": {"Tomato (breed: Reiyo)": {"tested_on": "Tomato (breed: Reiyo)", "assay": "Evaluation test for relief effects of low temperature injury on tomato", "conditions": "one night outside at average 0.5° C.", "procedure": "Tomato (breed: Reiyo, 4 reprications) grown up to the 3.5 leaf stage in a greenhouse was prepared.\nA water dispersible granule of 30% ascorbyl palmitate and pyraclostrobin dissolved to 40% with N,N-dimethylformamide were diluted with tap water to a concentration described in Table 7, and the diluted solution was sprayed over the whole nursery plants in a sufficient amount. After air dried, they were transferred to the outside of the greenhouse at an average temperature of 0.5° C. during night to investigate a degree of low temperature injury on the next morning.\nDisorders were evaluated by 5 levels of disorder indices of 0 (no disorder) to 4 (complete withering). From this, disorder relief percentages were computed by the following formula.\nLow temperature injury relief percentage=(disorder index of untreated region)−(disorder index of each treatment region)/(disorder index of untreated region)×100"}, "[1]": {"tested_on": "Cucumber (breed: Sagamihanjirohushinari)", "assay": "Evaluation test for relief effects of submergence disorder on cucumber", "conditions": "flood from 2 days, raw weight 11 days after spray", "procedure": "Cucumber (breed: Sagamihanjirohushinari, 2 reprications) grown up to the two leaf stage in a greenhouse was prepared.\nA water dispersible granule of 30% ascorbyl palmitate and pyraclostrobin adjusted to 40% with N,N-dimethylformamide were diluted with tap water to a predetermined concentration, and the diluted solution was sprayed in a sufficient amount. They were subjected to flood conditions up to immediately below the cotyledon from 2 days after the spray treatment, and the raw weights of an above ground part and a root part of cucumber were each measured at the elapsed time of 11 days after the spray treatment. From this, injury relief percentages were computed by the following formula.\nFlood injury relief percentage=((raw weight of each treatment region)−(raw weight of untreated region))/(raw weight of untreated region)×100"}, "Soybean (breed: Enrei)": {"tested_on": "Soybean (breed: Enrei)", "assay": "Evaluation test for relief effects of acidity problem on soybean", "conditions": "hydroponic medium pH 4 from 2 days, disorder index 11 days after spray", "procedure": "Soybean (breed: Enrei, 2 reprications) hydroponically grown up to the two leaf stage in a 100 ml flask was prepared.\nA water dispersible granule of 30% ascorbyl palmitate and pyraclostrobin dissolved to 40% with N,N-dimethylformamide were diluted with tap water to a predetermined concentration, and the diluted solution was sprayed over the whole nursery plants in a sufficient amount. The water culture medium was adjusted to pH 4 with 1 N hydrochloric acid at the elapsed time of 2 days after the spray treatment, and the above soybean was continuously allowed to grow hydroponically. Disorder in the soybean was investigated at the elapsed time of 11 days after the spray treatment.\nFor disorder, a degree of necrosis was evaluated by 11 levels of disorder indices from 0 (no necrosis) to 10 (withering to death). From this, problem relief percentages were computed by the following formula.\nAcidity problem relief percentage=((disorder index of untreated region)−(disorder index of each treated region))/(disorder index of untreated region)×100"}, "[2]": {"tested_on": "Cucumber (breed: Sagamihanjirohushinari)", "assay": "Evaluation test for relief effects of salt injury on cucumber", "conditions": "0.1% aqueous sodium chloride from 2 days, raw weight 11 days after spray", "procedure": "Cucumber (breed: Sagamihanjirohushinari, 2 reprications) hydroponically grown up to the two leaf stage in a greenhouse was prepared.\nA water dispersible granule of 30% ascorbic acid palmitate and pyraclostrobin adjusted to 40% with N,N-dimethylformamide were diluted with tap water to a predetermined concentration, and the diluted solution was sprayed over the whole nursery plants in a sufficient amount. After air dried, they were cultivated with normal irrigation in a greenhouse. Then, the irrigation conditions were changed to 0.1% aqueous sodium chloride solution in 2 cm depth from 2 days after the spraying, and cultivated up to 11 days after the spray treatment. Then the raw weights of an aerial part and a root part were each measured. From this, injury relief percentages were computed by the following formula.\nSalt injury relief percentage=((raw weight of each treatment region)−(raw weight of untreated region))/(raw weight of untreated region)×100"}, "Pyricularia oryzae": {"tested_on": "Pyricularia oryzae", "conditions": "11 days after inoculation"}, "[3]": {"tested_on": "Wheat (breed, Norin No. 61)", "assay": "Test for green color maintenance effects (relief of high temperature injury) on wheat", "conditions": "appl. amount 1.5 g/m^2 at plant foot, 4 times at intervals of seven days, field", "from_the_text": "Wheat (breed, Norin No. 61, 15 plants/m^2/region, 2 reprications) grown in the field was used. A water dispersible granule of 30% ascorbyl palmitate in an amount described in Table 11 was applied to the plant foot 4 times at intervals of seven days from the next day of the ear emergence day in August. The leaf color index of top 4 to 5 leaves of each plant in a treatment region was investigated on September 6 to evaluate maintenance effects of leaf color as compared with that in the untreated region.\nLeaf color was evaluated by […] of leaf color indices of 1 (discolored at ¼ or less of the whole), 2 (discolored at ½ or less of the whole) and 3 (discolored at ¾ or more of the whole). From this, the mean leaf color index, and green color maintenance effects were computed by the following formula.\nGreen color maintenance effect=(leaf color index of untreated region)−(leaf color index of each treatment region))/(leaf color index of untreated region)×100"}, "[4]": {"tested_on": "tomato yellow leaf curl virus (TYLCV)", "assay": "Test for symptom relief effects against tomato yellow leaf curl virus disease", "conditions": "for Onset percentage(%): tomato graft-inoculated, sprayed 4 times; for Onset percentage(%) / Onset inhibition percentage(%): 25 days; for Onset inhibition percentage(%): vs solvent DMF only; for Expectation value(%): expectation value of onset inhibition percentage", "procedure": "N,N-dimethylformamide based solutions were prepared according to the formulations shown in Table 18 to give chemical liquids for the tests.\nTomato nursery plants (breed: Momotaro) grown up to the 8 leaf stage in a greenhouse were prepared.\nTomato nursery plants suffering from tomato yellow leaf curl virus (TYLCV) were used as inoculation sources.\nA diseased plant was obliquely cut in round slices at the stem, and graft-inoculated to a tomato nursery plant. In order to prevent dryness, parafilm was wrapped around the grafted portion for protection.\nAfter the graft inoculation, the above chemical solution was sprayed on the stem and leaf part of the tomato nursery plant in a sufficient amount. Then, the above chemical solution was sprayed 3 times at intervals of about one week in a sufficient amount. Symptoms of tomato yellow leaf curl disease were investigated at an elapsed time of 25 days.\nSymptoms were evaluated by 5 levels of onset indices of 0 (with no onset) to 4 (fulminant).\nOnset inhibition percentages as compared with a region treated with solvent DMF only (Chemical solution 3) were computed by the following formula.\nOnset inhibition percentage=(onset index of region treated with solvent only)−(onset index of each treatment region))/(onset index of region treated with solvent only)×100\nFurther, the expectation values of onset inhibition percentages were computed based on the Colby's equation.\nThe Colby's equation is E=M+N−MN/100. In the equation, E represents the expectation value of an onset inhibition percentage (%), and M represents an onset inhibition percentage (%) calculated from measurements when the substance (A1) is used alone, and N represent an onset inhibition percentage (%) calculated from measurements when the substance (A2) is used alone."}, "[5]": {"conditions": "Pyraclostrobin 5 ppm spray on rice (Koshihikari) one day before inoculation"}, "[6]": {"conditions": "ascorbyl palmitate 1000 ppm spray"}, "[7]": {"conditions": "ascorbyl palmitate 50 ppm spray on rice (Koshihikari) one day before inoculation"}},
  "note": "Read-outs that look alike come from different tables or passages of the source.",
  "data": [
    {"molecule": "COC(=O)N(OC)c1ccccc1COc1ccn(-c2ccc(Cl)cc2)n1", "note": "[Pyraclostrobin, reference compound]", "values": [
      {"measurement": "relief percents of low-temperature injury(%)", "setting": "Tomato (breed: Reiyo); Pyraclostrobin 50 ppm spray", "value": 25, "unit": "%"},
      {"measurement": "relief percents of flood injury in aerial part(%)", "setting": "[1]; Pyraclostrobin 50 ppm spray", "value": 61.7, "unit": "%"},
      {"measurement": "relief percents of flood injury in root(%)", "setting": "[1]; Pyraclostrobin 50 ppm spray", "value": 39.0, "unit": "%"},
      {"measurement": "relief percents of acidity problem(%)", "setting": "Soybean (breed: Enrei); Pyraclostrobin 50 ppm spray", "value": 12.5, "unit": "%"},
      {"measurement": "relief percents of salt injury in aerial part(%)", "setting": "[2]; Pyraclostrobin 50 ppm spray", "value": 45.6, "unit": "%"},
      {"measurement": "relief percents of salt injury in root(%)", "setting": "[2]; Pyraclostrobin 50 ppm spray", "value": 20.0, "unit": "%"},
      {"measurement": "Number of lesion spots", "setting": "Pyricularia oryzae; [5]", "value": 10},
      {"measurement": "Preventive value(%)", "setting": "Pyricularia oryzae; [5]", "value": 70, "unit": "%"}
    ]},
    {"molecule": "CCCCCCCCCCCCCCCC(=O)OC[C@H](O)[C@H]1OC(=O)C(O)=C1O", "note": "[ascorbyl palmitate]", "values": [
      {"measurement": "relief percents of low-temperature injury(%)", "setting": "Tomato (breed: Reiyo); ascorbyl palmitate 500 ppm spray", "value": 100, "unit": "%"},
      {"measurement": "mean leaf color index", "setting": "[3]; index 1 to 3", "value": 1.5},
      {"measurement": "Green color maintenance effect(%)", "setting": "[3]; vs untreated region", "value": 25.0, "unit": "%"},
      {"measurement": "relief percents of flood injury in aerial part(%)", "setting": "[1]; [6]", "value": 31.9, "unit": "%"},
      {"measurement": "relief percents of flood injury in root(%)", "setting": "[1]; [6]", "value": 41.5, "unit": "%"},
      {"measurement": "relief percents of acidity problem(%)", "setting": "Soybean (breed: Enrei); [6]", "value": 43.8, "unit": "%"},
      {"measurement": "relief percents of salt injury in aerial part(%)", "setting": "[2]; [6]", "value": 8.8, "unit": "%"},
      {"measurement": "relief percents of salt injury in root(%)", "setting": "[2]; [6]", "value": 16.0, "unit": "%"},
      {"measurement": "Onset percentage(%)", "setting": "[4]; 500 ppm alone", "value": 30, "unit": "%"},
      {"measurement": "Onset inhibition percentage(%)", "setting": "[4]; 500 ppm alone", "value": 40, "unit": "%"},
      {"measurement": "Onset percentage(%)", "setting": "[4]; 1000 ppm alone", "value": 20, "unit": "%"},
      {"measurement": "Onset inhibition percentage(%)", "setting": "[4]; 1000 ppm alone", "value": 60, "unit": "%"},
      {"measurement": "Expectation value(%)", "setting": "[4]; 500 ppm alone", "value": 40, "unit": "%"},
      {"measurement": "Expectation value(%)", "setting": "[4]; 1000 ppm alone", "value": 60, "unit": "%"},
      {"measurement": "Number of lesion spots", "setting": "Pyricularia oryzae; [7]", "value": 30},
      {"measurement": "Preventive value(%)", "setting": "Pyricularia oryzae; [7]", "value": 9, "unit": "%"}
    ]}
  ]
}
